Assay results taken from paper PMC10060569 (Frontiers in Pharmacology, 2023).
Read-outs that look alike come from different tables or passages of the source.

Target: T1, hP2X2/3R (Homo sapiens, UniProt P56373+Q9UBL9)
T1 construct: expressed in transfected cells; host or cells: Xenopus laevis oocytes (co-injection of cRNAs)
T1 sequence (Q9UBL9 1-471): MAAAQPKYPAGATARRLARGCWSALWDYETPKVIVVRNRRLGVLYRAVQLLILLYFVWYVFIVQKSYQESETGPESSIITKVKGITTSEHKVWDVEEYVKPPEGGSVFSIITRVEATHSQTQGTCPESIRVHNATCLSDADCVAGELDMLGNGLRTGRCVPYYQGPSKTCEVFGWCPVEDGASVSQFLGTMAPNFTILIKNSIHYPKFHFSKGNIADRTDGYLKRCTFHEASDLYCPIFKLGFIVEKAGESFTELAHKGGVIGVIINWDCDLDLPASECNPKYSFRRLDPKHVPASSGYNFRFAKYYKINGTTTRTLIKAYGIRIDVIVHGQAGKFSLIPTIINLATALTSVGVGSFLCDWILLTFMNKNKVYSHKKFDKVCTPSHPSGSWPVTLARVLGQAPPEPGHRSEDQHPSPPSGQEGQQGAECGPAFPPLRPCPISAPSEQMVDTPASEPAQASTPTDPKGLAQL
T1 sequence (P56373 1-397): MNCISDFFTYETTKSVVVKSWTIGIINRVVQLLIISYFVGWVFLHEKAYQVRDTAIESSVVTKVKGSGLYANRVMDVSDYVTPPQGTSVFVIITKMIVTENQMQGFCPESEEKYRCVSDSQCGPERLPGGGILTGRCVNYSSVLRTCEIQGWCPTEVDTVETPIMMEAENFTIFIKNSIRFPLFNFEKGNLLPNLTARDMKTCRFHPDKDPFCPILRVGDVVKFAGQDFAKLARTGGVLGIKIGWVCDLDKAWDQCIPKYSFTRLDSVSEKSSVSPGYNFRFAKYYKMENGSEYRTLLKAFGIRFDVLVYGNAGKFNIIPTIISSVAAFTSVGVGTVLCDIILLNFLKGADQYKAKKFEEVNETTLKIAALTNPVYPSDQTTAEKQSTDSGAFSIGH
Experiment: TEVC of α,β-meATP-induced currents, heteromeric hP2X2/3R in X. laevis oocytes (steady-state protocol)
Assay type: cell-based
Text: Oocyte expression plasmids encoding the wild-type (wt) and N-terminally His-tagged (His-) fusion constructs of the hP2X2R, hP2X3R, hP2X4R, and hP2X7R, and the mutant His-^20RMVL^23KVIV^23S^26N-hP2X1R, S^15V-rP2X3R, and His-S^15V-hP2X3R were the same as used in previous research ([Hausmann et al., 2006]; [Wolf et al., 2011]; [Hausmann et al., 2014]; [Obrecht et al., 2019]). In most cases, the N-terminal His-tagged variants of P2XRs were used here and in the previous studies to allow biochemical analyses on affinity-purified proteins using the same constructs. Although this was not required for the present study, it allows for better comparability with our previous studies. Capped cRNAs of different P2XRs were already available in the research group or were synthesized as previously described ([Schmalzing et al., 1991]; [Stolz et al., 2015]). cRNA was injected into collagenase-defolliculated X. laevis oocytes in aliquots of 41 nl or 23 nl (see Supplementary Table S1 for the amount of cRNA used for expression of the indicated P2XR) using a Nanoliter 2000 injector (World Precision Instruments, Sarasota, United States of America) as described previously ([Hausmann et al., 2014]; [Stolz et al., 2015]; [Obrecht et al., 2019]). To express the heteromeric hP2X2/3 receptor, cRNAs encoding His-hP2X2R and wt-hP2X3R were coinjected at a ratio (w/w) of 1:6. Oocytes were stored at 19°C in an oocyte ringer solution (ORi^+) containing 90 mM NaCl, 1 mM KCl, 1 mM CaCl2, 1 mM MgCl2, and 10 mM HEPES (Carl Roth, Karlsruhe, Germany) adjusted to pH 7.4 with NaOH and supplemented with 50 μg/ml gentamicin (AppliChem, Darmstadt, Germany). The procedures followed for the maintenance of and the surgical treatment for X. laevis adults were approved by the governmental animal care and use committee of the State Agency for Nature, Environment, and Consumer Protection (LANUV, Recklinghausen, Germany; reference no. 81-02.04.2019. A355), in compliance with Directive 2010/63/EU of the European Parliament and of the Council on the protection of animals used for scientific purpose.
Ion currents mediated by P2X receptors were evoked by the indicated concentration of ATP or α,β-meATP and were recorded 1 or 2 days after cRNA injection at ambient temperature at a holding potential of −60 mV by two-electrode voltage clamp (TEVC) as previously described ([Hausmann et al., 2006]). Calcium-free ORi^− solution (90 mM NaCl, 1 mM KCl, 2 mM MgCl2, 10 mM HEPES, pH 7.4) was used to avoid bias due to calcium-activated chloride channels (CaCC) endogenously expressed in X. laevis oocytes ([Miledi, 1982]; [Methfessel et al., 1986]). For recordings of wt-hP2X7R, the composition of the ORi^− solution was modified according to protocols described previously and contained 100 mM NaCl, 2.5 mM KCl, 1 mM MgCl2, 5 mM HEPES, pH 7.4 ([Klapperstück et al., 2000]). The oocytes were continuously superfused with ORi^− by gravity flow (5–10 ml/min). The agonists ATP or α,β-meATP and the investigated NSAIDs were diluted in ORi^− on the day of the recording. The following agonist concentrations were used for the different P2X subtypes: 1 μM ATP (hP2X1R mutant, hP2X3R, rP2X3R, S^15V-hP2X3R, and S^15V-rP2X3R); 10 μM ATP (hP2X2R and hP2X4R); 300 μM free ATP^4- (hP2X7R); and 1 μM α,β-meATP (hP2X2/3R). […]

Q: For O=C(O)Cc1ccccc1Nc1c(Cl)cccc1Cl [Diclofenac, diclofenac], which IC50 (1 µM α,β-meATP, steady-state protocol, X. laevis oocytes) is on record?
A: Its IC50 is 76.7 µM.

Q: What about the “reduction of current amplitude in the presence of 3–10 µM diclofenac” value (3–10 µM diclofenac) of the same molecule?
A: Its value is 20%–30%.

Q: And the inhibition at 30 µM (read-out: % inhibition by 30 µM diclofenac of 1 µM α,β-meATP-induced current)?
A: Its inhibition at 30 µM is 44.8%.

Q: What about the inhibition at 30 µM (read-out: % inhibition by 30 µM diclofenac of 30 µM α,β-meATP-induced current) of the same molecule?
A: Its inhibition at 30 µM is 25.1%.

Q: What about the inhibition at 1000 µM (read-out: Max. inhibition at 1 mM) of the same molecule?
A: Its inhibition at 1000 µM is 97%.
